# Reference: patent publication US20150290240A1 (Fred Hulchinson Cancer Research Center, priority 2012, published 2015)
# Tests used:
# [1] = tested on: cardiac troponin I; experiment: Plasma cardiac troponin I by ELISA after LAD ligation and 2 hour reperfusion; format: in vivo, mice; settings: end of 2 hour reperfusion
# Procedure: (§1) For the myocardial infarction model, open chest ligation of the left descending coronary artery (LAD ligation) was performed in mice. At 55 minutes post initiation of ischemia, either vehicle or test agent was injected into the femoral vein of each mouse. The heart muscle was reperfused by releasing the ligature at 60 minutes post initiation of ischemia. Mice were then sacrificed at either 2 hours or 2 days post reperfusion for infarct size measurement and blood analysis or heart function assays, respectively, as described below.
# To provide an independent means of testing for improvement, the level of a heart specific protein, cardiac troponin I, was assessed in the blood of the animals after the 2 hour reperfusion period. Five minutes prior to reperfusion, three groups of mice were given 200 μg/kg NaHSe, 50 μg/kg NaHSe, or saline by I.V. injection through the femoral vein. At the end of the 2 hour reperfusion, blood was collected and plasma cardiac troponin I was measured by ELISA.
# [2] = tested on: mouse model of heart attack (heart function); experiment: Echocardiography 2 days post the heart attack procedure; format: in vivo, mice; settings: 800 μg/kg; 48 hours of reperfusion after 60 min LAD ligation; vs saline
# Procedure: as §1
# To further test the hypothesis that NaHSe improves outcome following myocardial infarction, mice were survived for 2 days post the heart attack procedure and then subjected to echocardiography.
# [3] = tested on: neutrophils in the myocardium; experiment: Neutrophil count in heart sections following the heart attack procedure; format: in vivo, mice; settings: vs saline treated animals
# Procedure: as §1
# In order to determine whether NaHSe decreased inflammation in the hearts of animals following the heart attack procedure, neutrophils were counted in sections of hearts of saline and NaHSe treated animals.
# [4] = Oxidation of selenide solutions in water or glutathione, observed visually; format: physicochemical; settings: 50 mM selenide in 150 mM GSH vs in water; 8 minutes immediately following preparation
# [5] = tested on: mouse model of heart attack (myocardial ischemia and reperfusion); experiment: Infarct size by morphometry (TTC and Evans blue) after LAD ligation and 2 hours of reperfusion; format: in vivo, mice
# Procedure: as §1
# In order to examine the effect of NaHSe on myocardial infarct size, mice were subjected to LAD ligation, and after 2 hours of reperfusion, infarct size was measured by morphometry (FIG. 1). Six groups of mice were utilized in this study, including a saline vehicle group and five test groups that received 50, 200, 800, 1600 and 2400 μg/kg of NaHSe. To be certain that all animals in the study were treated in a similar way, the area at risk (AAR) as a proportion of the left ventricle was determined (FIG. 1, left panel).
# Area at risk and infarct size (Inf) were measured using the specific dyes TTC and Evans blue. Processed images were generated in an unbiased way by setting constant thresholds and allowing Photoshop® to generate the images that were quantitated to generate FIG. 1.
# [6] = tested on: glutathione peroxidase 2 (GPX-2); experiment: Antibody staining of heart sections for glutathione peroxidase 2; format: in vivo, mice; settings: 800 μg/kg; compared to saline and sham (no heart attack) animals
# Procedure: as §1
# Therefore, the hypothesis that the therapeutic value of sodium selenide is its accumulation in cardiomycytes during reperfusion for the synthesis of selenoproteins, such as glutathione peroxidase, was tested. Heart sections from animals that were saline treated or NaHSe (800 μg/kg) treated were stained with an antibody specific for the selenoprotein glutathione peroxidase 2 (GPX-2).
compound,measurement,setting,value
[SeH2] [NaHSe],plasma cardiac troponin I compared to saline control,[1]; 50 μg/kg I.V. 5 min prior to reperfusion,statistically significant decrease
same,plasma cardiac troponin I compared to saline control,[1]; 200 μg/kg I.V. 5 min prior to reperfusion,statistically significant decrease
same,fractional shortening,[2],statistically significant improvement
same,left ventricular ejection fraction,[2],statistically significant improvement
same,accumulation of neutrophils in the myocardium,[3],significantly reduced
same,oxidation of selenide (dark oxidized forms in solution),[4],reduced levels of oxidation
same,benefit relative to infarct size vs saline,"[5]; 800 μg/kg (0.8 mg/kg) at reperfusion, selenide vs selenite comparison (FIG. 6)",provided benefit
same,reduction in infarct size in comparison to vehicle alone,"[5]; 800 μg/kg I.V. femoral vein 5 min prior to reperfusion, 60 min LAD ligation, 2 hours reperfusion",88%
same,infarct size vs saline group,"[5]; 50, 200, 800, 1600 and 2400 μg/kg I.V. 5 min prior to reperfusion, 2 hours reperfusion",statistically significant dose dependent decreases
same,GPX-2 antibody staining of heart sections,[6],striking increase
